For 5 compounds, Kb, Activity and Ki results are on record in ChEMBL document CHEMBL1138341, “(S)-N-{3-[1-cyclopropyl-1-(2,4-difluoro-phenyl)-ethyl]-1H-indol-7-yl}-methanesulfonamide: a potent, nonsteroidal, functional antagonist of the mineralocorticoid receptor” (J Med Chem, 2007).

A word on the Kb: it is the equilibrium dissociation constant of an antagonist, usually derived from a functional assay. Low readings indicate higher antagonist affinity, high ones lower antagonist affinity. A word on the Ki: it is a measure of affinity in units of concentration, obtained from inhibition or displacement. A lower Ki goes with tighter binding.

The target in assay [1] is T1, Mineralocorticoid receptor (Homo sapiens) (UniProt P08235).
T1 sequence (whole entry): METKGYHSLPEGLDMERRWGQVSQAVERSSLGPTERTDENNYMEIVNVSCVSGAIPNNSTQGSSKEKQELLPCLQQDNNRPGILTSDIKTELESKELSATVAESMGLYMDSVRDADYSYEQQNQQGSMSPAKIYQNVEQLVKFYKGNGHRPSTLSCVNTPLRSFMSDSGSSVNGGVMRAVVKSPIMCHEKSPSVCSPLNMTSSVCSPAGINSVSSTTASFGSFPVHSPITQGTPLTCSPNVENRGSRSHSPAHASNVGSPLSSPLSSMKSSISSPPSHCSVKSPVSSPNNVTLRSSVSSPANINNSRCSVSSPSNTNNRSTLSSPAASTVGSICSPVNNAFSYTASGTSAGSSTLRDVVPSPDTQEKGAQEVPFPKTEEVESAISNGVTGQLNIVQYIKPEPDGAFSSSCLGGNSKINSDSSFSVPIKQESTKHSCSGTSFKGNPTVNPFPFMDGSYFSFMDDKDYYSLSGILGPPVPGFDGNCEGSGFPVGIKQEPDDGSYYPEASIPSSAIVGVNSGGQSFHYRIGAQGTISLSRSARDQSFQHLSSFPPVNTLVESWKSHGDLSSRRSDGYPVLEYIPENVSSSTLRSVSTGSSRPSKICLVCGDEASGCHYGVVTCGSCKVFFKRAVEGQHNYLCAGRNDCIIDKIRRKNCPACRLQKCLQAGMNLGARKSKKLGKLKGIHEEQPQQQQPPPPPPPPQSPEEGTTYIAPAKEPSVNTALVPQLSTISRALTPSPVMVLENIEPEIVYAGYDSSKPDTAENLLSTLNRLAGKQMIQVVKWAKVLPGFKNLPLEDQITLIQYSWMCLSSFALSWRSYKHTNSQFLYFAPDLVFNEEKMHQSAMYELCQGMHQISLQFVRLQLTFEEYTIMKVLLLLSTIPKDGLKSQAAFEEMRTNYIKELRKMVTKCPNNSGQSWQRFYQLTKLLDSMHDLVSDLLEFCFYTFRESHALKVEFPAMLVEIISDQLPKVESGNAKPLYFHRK
Nature of the assay: Antagonist activity at human mineralocorticoid receptor expressed in COS7 cells after 24 hrs by luciferase reporter gene assay. The assay is classed as functional, cell-based. The note with it: COS-7. A general note: In a reporter assay the amount or activity of a reporter protein is the signal.

The test system of assay [2] is Rattus norvegicus. Kind of assay: Reduction in aldosterone-induced hypertension in salt-loaded uni-nephrectomized Sprague-Dawley rat at 3 mg/kg, po qd after 14 days. Format: functional, organism-based. On the set-up: dose 3 mg/kg.
The target of assay [3] is T2, Mineralocorticoid receptor (Homo sapiens, UniProt P08235).
T2 sequence (P08235 whole entry): T1 sequence (whole entry)
Nature of the assay: Binding affinity to human mineralocorticoid receptor.

In another assay the target is T3, Glucocorticoid receptor (Homo sapiens, UniProt P04150).
T3 sequence (P04150 whole entry): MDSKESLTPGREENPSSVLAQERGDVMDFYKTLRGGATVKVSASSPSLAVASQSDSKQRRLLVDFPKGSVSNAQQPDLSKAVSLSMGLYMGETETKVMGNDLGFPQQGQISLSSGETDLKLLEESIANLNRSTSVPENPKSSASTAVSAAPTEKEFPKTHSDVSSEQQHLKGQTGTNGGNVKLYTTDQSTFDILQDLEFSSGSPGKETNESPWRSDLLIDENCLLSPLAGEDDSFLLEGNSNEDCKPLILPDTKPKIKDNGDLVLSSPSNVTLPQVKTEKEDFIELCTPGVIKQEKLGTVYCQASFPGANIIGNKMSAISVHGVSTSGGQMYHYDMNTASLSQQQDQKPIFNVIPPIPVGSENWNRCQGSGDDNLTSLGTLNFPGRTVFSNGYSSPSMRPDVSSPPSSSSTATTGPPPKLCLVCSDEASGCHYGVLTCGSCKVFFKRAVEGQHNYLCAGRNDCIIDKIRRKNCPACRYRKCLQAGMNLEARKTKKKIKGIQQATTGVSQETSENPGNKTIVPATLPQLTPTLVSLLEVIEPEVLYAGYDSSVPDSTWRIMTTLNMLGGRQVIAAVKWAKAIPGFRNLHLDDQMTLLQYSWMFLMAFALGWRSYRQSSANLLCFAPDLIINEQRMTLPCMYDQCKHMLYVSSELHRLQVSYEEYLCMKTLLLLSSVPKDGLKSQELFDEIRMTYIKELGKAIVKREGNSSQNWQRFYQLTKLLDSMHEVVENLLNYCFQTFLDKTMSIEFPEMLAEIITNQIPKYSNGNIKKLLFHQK
Kind of assay: Binding affinity to human glucocorticoid receptor.

In the next assay the target is T4, Androgen receptor (Homo sapiens, UniProt P10275).
T4 sequence (P10275 whole entry): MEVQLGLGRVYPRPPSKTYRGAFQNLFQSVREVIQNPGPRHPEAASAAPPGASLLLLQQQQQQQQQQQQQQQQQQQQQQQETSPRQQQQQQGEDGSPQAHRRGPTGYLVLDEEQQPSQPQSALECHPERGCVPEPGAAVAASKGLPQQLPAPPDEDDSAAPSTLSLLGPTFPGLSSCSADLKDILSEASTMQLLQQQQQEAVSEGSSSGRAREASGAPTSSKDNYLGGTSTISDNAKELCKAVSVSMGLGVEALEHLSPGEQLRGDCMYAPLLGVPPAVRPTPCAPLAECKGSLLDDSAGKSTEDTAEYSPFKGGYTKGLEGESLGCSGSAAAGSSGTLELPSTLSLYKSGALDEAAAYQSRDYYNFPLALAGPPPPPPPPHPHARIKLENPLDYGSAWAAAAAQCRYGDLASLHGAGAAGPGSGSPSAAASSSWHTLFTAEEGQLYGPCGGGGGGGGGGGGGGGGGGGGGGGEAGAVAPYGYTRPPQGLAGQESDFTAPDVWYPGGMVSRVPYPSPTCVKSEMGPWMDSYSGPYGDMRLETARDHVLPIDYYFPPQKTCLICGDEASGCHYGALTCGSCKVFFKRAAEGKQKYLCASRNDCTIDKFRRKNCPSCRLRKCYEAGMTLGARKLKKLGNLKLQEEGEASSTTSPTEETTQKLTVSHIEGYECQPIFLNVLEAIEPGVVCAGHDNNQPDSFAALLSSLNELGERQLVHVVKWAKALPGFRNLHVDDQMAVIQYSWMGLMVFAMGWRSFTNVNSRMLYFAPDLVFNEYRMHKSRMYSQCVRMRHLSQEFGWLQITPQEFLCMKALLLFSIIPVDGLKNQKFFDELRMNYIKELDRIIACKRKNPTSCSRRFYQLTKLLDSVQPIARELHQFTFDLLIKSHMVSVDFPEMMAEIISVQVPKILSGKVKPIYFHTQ
Kind of assay: Binding affinity to human androgen receptor.

For the next assay, the target named is T5, Progesterone receptor (Homo sapiens, UniProt P06401).
T5 sequence (P06401 whole entry): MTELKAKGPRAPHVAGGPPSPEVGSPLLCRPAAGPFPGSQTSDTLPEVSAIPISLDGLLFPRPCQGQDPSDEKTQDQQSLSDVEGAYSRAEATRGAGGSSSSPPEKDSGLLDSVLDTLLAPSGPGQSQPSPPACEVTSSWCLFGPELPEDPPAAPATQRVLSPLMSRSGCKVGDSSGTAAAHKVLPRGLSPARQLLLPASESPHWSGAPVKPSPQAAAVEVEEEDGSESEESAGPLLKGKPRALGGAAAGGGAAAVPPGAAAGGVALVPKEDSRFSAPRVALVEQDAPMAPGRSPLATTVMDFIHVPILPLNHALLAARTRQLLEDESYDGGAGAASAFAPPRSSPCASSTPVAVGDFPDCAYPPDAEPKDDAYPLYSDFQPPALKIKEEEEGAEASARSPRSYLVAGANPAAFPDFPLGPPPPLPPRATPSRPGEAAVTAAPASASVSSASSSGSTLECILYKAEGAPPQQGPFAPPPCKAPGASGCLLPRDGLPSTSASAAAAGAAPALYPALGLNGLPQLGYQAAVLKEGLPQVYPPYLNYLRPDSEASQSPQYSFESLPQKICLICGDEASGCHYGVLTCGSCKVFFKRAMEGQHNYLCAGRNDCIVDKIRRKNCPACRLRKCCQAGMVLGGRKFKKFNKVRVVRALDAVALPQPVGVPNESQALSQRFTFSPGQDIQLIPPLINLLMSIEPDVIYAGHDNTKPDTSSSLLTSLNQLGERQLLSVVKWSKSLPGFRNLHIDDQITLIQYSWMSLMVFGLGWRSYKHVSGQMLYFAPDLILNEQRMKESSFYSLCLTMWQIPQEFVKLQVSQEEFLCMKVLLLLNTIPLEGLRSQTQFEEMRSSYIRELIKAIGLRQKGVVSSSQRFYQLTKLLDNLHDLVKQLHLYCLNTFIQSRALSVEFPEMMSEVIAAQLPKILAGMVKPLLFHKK
Kind of assay: Binding affinity to human progesterone receptor.

In a further assay the target is T6, Estrogen receptor (Homo sapiens, UniProt P03372).
T6 sequence (P03372 whole entry): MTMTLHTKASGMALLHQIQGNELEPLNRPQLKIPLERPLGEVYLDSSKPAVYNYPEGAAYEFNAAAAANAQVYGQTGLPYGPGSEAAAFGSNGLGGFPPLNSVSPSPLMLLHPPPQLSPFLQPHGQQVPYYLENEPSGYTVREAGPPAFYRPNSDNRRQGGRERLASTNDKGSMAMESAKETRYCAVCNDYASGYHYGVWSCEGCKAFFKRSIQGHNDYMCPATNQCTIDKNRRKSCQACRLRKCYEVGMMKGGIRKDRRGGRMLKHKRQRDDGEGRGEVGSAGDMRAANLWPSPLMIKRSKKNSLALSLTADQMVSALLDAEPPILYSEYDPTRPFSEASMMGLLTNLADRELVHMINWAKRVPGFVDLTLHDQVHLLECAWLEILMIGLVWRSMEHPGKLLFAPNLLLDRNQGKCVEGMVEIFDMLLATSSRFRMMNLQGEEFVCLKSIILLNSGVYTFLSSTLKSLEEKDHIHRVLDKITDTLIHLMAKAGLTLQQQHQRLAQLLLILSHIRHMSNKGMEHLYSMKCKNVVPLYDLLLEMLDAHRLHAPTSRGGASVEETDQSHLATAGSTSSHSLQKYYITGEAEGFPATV
Nature of the assay: Binding affinity to human estrogen receptor.

Assay [4] has as its system Rattus norvegicus. Kind of assay: Reduction in aldosterone-induced hypertension in salt-loaded uni-nephrectomized Sprague-Dawley rat at 30 mg/kg, po qd after 14 days. Format: functional, organism-based. On the set-up: dose 30 mg/kg.

Active and inactive are the calls of the source. The rule behind the calls is not given here.

Regarding `C[C@@](c1ccc(F)cc1)(c1c[nH]c2c(NS(C)(=O)=O)cccc12)C1CC1`, in assay [1], the Kb was found to be 38.2 nM. The outcome in the assay with Rattus norvegicus [2] was inactive. In addition, the Ki in assay [3] was 1.56 nM; at Glucocorticoid receptor it was 167 nM; on Androgen receptor, 849 nM; on Progesterone receptor it was 137 nM; at Estrogen receptor, more than 1100 nM.
Consider `COC(=O)[C@@H]1CC2=CC(=O)CC[C@]2(C)C2C1C1CC[C@@]3(CCC(=O)O3)[C@@]1(C)[C@H]1O[C@@H]21` (stereo partly specified) [EPIERENONE], for which the Kb in assay [1] was determined as 189 nM. In addition, the outcome in the assay on Rattus norvegicus [4] was Active. Further, the inhibition constant (Ki) in assay [3] is 124 nM; at Glucocorticoid receptor it was 1760 nM; on Androgen receptor, 8890 nM; on Progesterone receptor it was 29400 nM; on Estrogen receptor it was more than 1100 nM.
With `C[C@](c1ccc(F)cc1)(c1c[nH]c2c(NS(C)(=O)=O)cccc12)C1CC1`, the Kb in assay [1] was 115 nM. Also, the inhibitory constant (Ki) in assay [3] is 7.5 nM; at Glucocorticoid receptor, 387 nM; on Androgen receptor, 590 nM; on Progesterone receptor it was 313 nM; on Estrogen receptor it was more than 1100 nM.
For the compound `CC(=O)S[C@@H]1CC2=CC(=O)CC[C@]2(C)[C@H]2CC[C@@]3(C)[C@@H](CC[C@@]34CCC(=O)O4)[C@H]12` [SPIRONOLACTONE], the figures for the Ki on Glucocorticoid receptor and at Estrogen receptor were 32.6 nM and more than 1100 nM, respectively.
On to `C[C@@](c1ccc(F)cc1F)(c1c[nH]c2c(NS(C)(=O)=O)cccc12)C1CC1`, for which the result in the assay on Rattus norvegicus [2] was Active. For the same compound, the values for the inhibition constant Ki on Androgen receptor, at Progesterone receptor and on Estrogen receptor were 700 nM, 163 nM and more than 1100 nM, respectively.
